Test system: T1, FabI2 ENR (metagenomic YX7K type enoyl-acyl carrier protein reductase)
T1 construct: fabI2 gene in pET-30b(+) (BamHI/SalI), vector pAF1-5; His-tag fusion protein from E. coli BL21(DE3), tag cleavage not mentioned
Assay: spectrophotometric NADH oxidation at […] nm, Michaelis-Menten fit
Assay type: biochemical, uncultured bacterium
Conditions: 100 nM enzyme, 100 mM sodium phosphate pH 7.0, 25 °C

C/C=C/C(=O)SCCNC(=O)CCNC(=O)[C@H](O)C(C)(C)COP(=O)(O)OP(=O)(O)OC[C@H]1O[C@@H](n2cnc3c(N)ncnc32)[C@H](O)[C@@H]1OP(=O)(O)O [crotonyl-CoA]
Km (200 µM NADH): 13.8 µM

NC(=O)C1=CN([C@@H]2O[C@H](COP(=O)(O)OP(=O)(O)OC[C@H]3O[C@@H](n4cnc5c(N)ncnc54)[C@H](O)[C@@H]3O)[C@@H](O)[C@H]2O)C=CC1 [NADH]
Km (60 µM crotonyl-CoA): 18.2 µM

Reference: PMC6817880, “Biochemical and Structural Insights Concerning Triclosan Resistance in a Novel YX7K Type Enoyl-Acyl Carrier Protein Reductase from Soil Metagenome” (Scientific Reports, 2019)
